Source: ChEMBL document CHEMBL3046001, “4-Thiazolidinone and 1-thia-3,4,9-triaza fluorene conjugates: synthesis, characterization and antimicrobial screening” (2013)
≈ marks a conversion by molar mass, not a printed value. Calls of active or inactive are those of the source. The rule behind the calls is not given here.

How the values were obtained:
Assay type in all cases: functional
Micrococcus luteus [1] = assay: Antibacterial activity against Micrococcus luteus MTCC 1538 assessed as growth inhibition after 24 hr by tube dilution method; settings: MTCC 1538, 24 h
Pseudomonas aeruginosa [2] = assay: Antibacterial activity against Pseudomonas aeruginosa MTCC 424 assessed as growth inhibition after 24 hr by tube dilution method; settings: MTCC 424, 24 h
Pseudomonas fluorescens [3] = assay: Antibacterial activity against Pseudomonas fluorescens MTCC 2421 assessed as growth inhibition after 24 hr by tube dilution method; settings: MTCC 2421, 24 h
Escherichia coli [4] = assay: Antibacterial activity against Escherichia coli MTCC 1573 assessed as growth inhibition after 24 hr by tube dilution method; settings: MTCC 1573, 24 h
Bacillus pumilus [5] = assay: Antibacterial activity against Bacillus pumilus MTCC 1456 assessed as growth inhibition after 24 hr by tube dilution method; settings: MTCC 1456, 24 h
Bacillus subtilis [6] = assay: Antibacterial activity against Bacillus subtilis MTCC 441 assessed as growth inhibition after 24 hr by tube dilution method; settings: MTCC 441, 24 h
Bacillus subtilis [7] = assay: Antibacterial activity against Bacillus subtilis MTCC 441 assessed as growth inhibition at 1250 ug/mL after 48 hr by agar diffusion method; settings: MTCC 441, 48 h, read-out: DIZ
Bacillus subtilis [8] = assay: Antibacterial activity against Bacillus subtilis MTCC 441 assessed as growth inhibition at 1000 ug/mL after 48 hr by agar diffusion method; settings: MTCC 441, 48 h, read-out: DIZ
Bacillus subtilis [9] = assay: Antibacterial activity against Bacillus subtilis MTCC 441 assessed as growth inhibition at 750 ug/mL after 48 hr by agar diffusion method; settings: MTCC 441, 48 h, read-out: DIZ
Bacillus subtilis [10] = assay: Antibacterial activity against Bacillus subtilis MTCC 441 assessed as growth inhibition at 500 ug/mL after 48 hr by agar diffusion method; settings: MTCC 441, 48 h, read-out: DIZ
Bacillus subtilis [11] = assay: Antibacterial activity against Bacillus subtilis MTCC 441 assessed as growth inhibition at 100 ug/mL after 48 hr by agar diffusion method
Penicillium chrysogenum [12] = assay: Antifungal activity against Penicillium chrysogenum MTCC 161 assessed as growth inhibition at 1000 ug/mL after 48 hr by agar diffusion method; settings: MTCC 161, 48 h, read-out: DIZ
Penicillium chrysogenum [13] = assay: Antifungal activity against Penicillium chrysogenum MTCC 161 assessed as growth inhibition at 750 ug/mL after 48 hr by agar diffusion method; settings: MTCC 161, 48 h, read-out: DIZ
Penicillium chrysogenum [14] = assay: Antifungal activity against Penicillium chrysogenum MTCC 161 assessed as growth inhibition at 500 ug/mL after 48 hr by agar diffusion method; settings: MTCC 161, 48 h, read-out: DIZ
Aspergillus niger [15] = assay: Antifungal activity against Aspergillus niger MTCC 2546 assessed as growth inhibition at 1250 ug/mL after 48 hr by agar diffusion method; settings: MTCC 2546, 48 h, read-out: DIZ
Aspergillus niger [16] = assay: Antifungal activity against Aspergillus niger MTCC 2546 assessed as growth inhibition at 750 ug/mL after 48 hr by agar diffusion method; settings: MTCC 2546, 48 h, read-out: DIZ
Pseudomonas fluorescens [17] = assay: Antibacterial activity against Pseudomonas fluorescens MTCC 2421 assessed as growth inhibition at 500 ug/mL after 48 hr by agar diffusion method; settings: MTCC 2421, 48 h, read-out: DIZ
Micrococcus luteus [18] = assay: Antibacterial activity against Micrococcus luteus MTCC 1538 assessed as growth inhibition at 250 ug/mL after 48 hr by agar diffusion method
Bacillus pumilus [19] = assay: Antibacterial activity against Bacillus pumilus MTCC 1456 assessed as growth inhibition at 1250 ug/mL after 48 hr by agar diffusion method; settings: MTCC 1456, 48 h, read-out: DIZ
Bacillus pumilus [20] = assay: Antibacterial activity against Bacillus pumilus MTCC 1456 assessed as growth inhibition at 1000 ug/mL after 48 hr by agar diffusion method; settings: MTCC 1456, 48 h, read-out: DIZ
Bacillus pumilus [21] = assay: Antibacterial activity against Bacillus pumilus MTCC 1456 assessed as growth inhibition at 100 ug/mL after 48 hr by agar diffusion method; settings: MTCC 1456, 48 h, read-out: DIZ
Staphylococcus aureus [22] = assay: Antibacterial activity against Staphylococcus aureus MTCC 1430 assessed as growth inhibition at 1250 ug/mL after 48 hr by agar diffusion method; settings: MTCC 1430, 48 h, read-out: DIZ
Staphylococcus aureus [23] = assay: Antibacterial activity against Staphylococcus aureus MTCC 1430 assessed as growth inhibition at 1000 ug/mL after 48 hr by agar diffusion method; settings: MTCC 1430, 48 h, read-out: DIZ
Staphylococcus aureus [24] = assay: Antibacterial activity against Staphylococcus aureus MTCC 1430 assessed as growth inhibition at 750 ug/mL after 48 hr by agar diffusion method; settings: MTCC 1430, 48 h, read-out: DIZ
Staphylococcus aureus [25] = assay: Antibacterial activity against Staphylococcus aureus MTCC 1430 assessed as growth inhibition at 500 ug/mL after 48 hr by agar diffusion method; settings: MTCC 1430, 48 h, read-out: DIZ
Staphylococcus aureus [26] = assay: Antibacterial activity against Staphylococcus aureus MTCC 1430 assessed as growth inhibition at 250 ug/mL after 48 hr by agar diffusion method
Pseudomonas aeruginosa [27] = assay: Antibacterial activity against Pseudomonas aeruginosa MTCC 424 assessed as growth inhibition at 250 ug/mL after 48 hr by agar diffusion method; settings: MTCC 424, 48 h, read-out: DIZ
Pseudomonas aeruginosa [28] = assay: Antibacterial activity against Pseudomonas aeruginosa MTCC 424 assessed as growth inhibition at 100 ug/mL after 48 hr by agar diffusion method; settings: MTCC 424, 48 h, read-out: DIZ
Micrococcus luteus [29] = assay: Antibacterial activity against Micrococcus luteus MTCC 1538 assessed as growth inhibition at 1250 ug/mL after 48 hr by agar diffusion method; settings: MTCC 1538, 48 h, read-out: DIZ
Micrococcus luteus [30] = assay: Antibacterial activity against Micrococcus luteus MTCC 1538 assessed as growth inhibition at 1000 ug/mL after 48 hr by agar diffusion method; settings: MTCC 1538, 48 h, read-out: DIZ
Micrococcus luteus [31] = assay: Antibacterial activity against Micrococcus luteus MTCC 1538 assessed as growth inhibition at 750 ug/mL after 48 hr by agar diffusion method; settings: MTCC 1538, 48 h, read-out: DIZ
Pseudomonas fluorescens [32] = assay: Antibacterial activity against Pseudomonas fluorescens MTCC 2421 assessed as growth inhibition at 100 ug/mL after 48 hr by agar diffusion method; settings: MTCC 2421, 48 h, read-out: DIZ
Escherichia coli [33] = assay: Antibacterial activity against Escherichia coli MTCC 1573 assessed as growth inhibition at 1250 ug/mL after 48 hr by agar diffusion method; settings: MTCC 1573, 48 h, read-out: DIZ
Escherichia coli [34] = assay: Antibacterial activity against Escherichia coli MTCC 1573 assessed as growth inhibition at 750 ug/mL after 48 hr by agar diffusion method; settings: MTCC 1573, 48 h, read-out: DIZ
Escherichia coli [35] = assay: Antibacterial activity against Escherichia coli MTCC 1573 assessed as growth inhibition at 500 ug/mL after 48 hr by agar diffusion method; settings: MTCC 1573, 48 h, read-out: DIZ
Escherichia coli [36] = assay: Antibacterial activity against Escherichia coli MTCC 1573 assessed as growth inhibition at 250 ug/mL after 48 hr by agar diffusion method; settings: MTCC 1573, 48 h, read-out: DIZ
Escherichia coli [37] = assay: Antibacterial activity against Escherichia coli MTCC 1573 assessed as growth inhibition at 100 ug/mL after 48 hr by agar diffusion method; settings: MTCC 1573, 48 h, read-out: DIZ
Pseudomonas aeruginosa [38] = assay: Antibacterial activity against Pseudomonas aeruginosa MTCC 424 assessed as growth inhibition at 1000 ug/mL after 48 hr by agar diffusion method; settings: MTCC 424, 48 h, read-out: DIZ
Pseudomonas aeruginosa [39] = assay: Antibacterial activity against Pseudomonas aeruginosa MTCC 424 assessed as growth inhibition at 500 ug/mL after 48 hr by agar diffusion method; settings: MTCC 424, 48 h, read-out: DIZ

MIC (Micrococcus luteus [1])	MIC (Pseudomonas aeruginosa [2])	MIC (Pseudomonas fluorescens [3])	MIC (Escherichia coli [4])	MIC (Bacillus pumilus [5])	MIC (Bacillus subtilis [6])	SMILES	zone of inhibition at 1250 µg/mL (Bacillus subtilis [7])	zone of inhibition at 1000 µg/mL (Bacillus subtilis [8])	zone of inhibition at 750 µg/mL (Bacillus subtilis [9])	zone of inhibition at 500 µg/mL (Bacillus subtilis [10])	zone of inhibition at 1000 µg/mL (Penicillium chrysogenum [12])	zone of inhibition at 750 µg/mL (Penicillium chrysogenum [13])	zone of inhibition at 500 µg/mL (Penicillium chrysogenum [14])	zone of inhibition at 1250 µg/mL (Aspergillus niger [15])	zone of inhibition at 750 µg/mL (Aspergillus niger [16])	zone of inhibition at 500 µg/mL (Pseudomonas fluorescens [17])	zone of inhibition at 1250 µg/mL (Bacillus pumilus [19])	zone of inhibition at 1000 µg/mL (Bacillus pumilus [20])	zone of inhibition at 100 µg/mL (Bacillus pumilus [21])	zone of inhibition at 1250 µg/mL (Staphylococcus aureus [22])	other results
250 µg/mL (≈ 684 µM)	30 µg/mL (≈ 82.1 µM)	50 µg/mL (≈ 137 µM)	40 µg/mL (≈ 109 µM)	50 µg/mL (≈ 137 µM)	40 µg/mL (≈ 109 µM)	O=C1CSC(c2ccccn2)N1c1nnc2c3ccccc3nc-2s1 (stereo not drawn)	18 mm	15 mm	13 mm	12 mm	15 mm	13 mm	12 mm	17 mm	14 mm	13 mm	21 mm	19 mm	8 mm	15 mm	zone of inhibition at 100 µg/mL (Bacillus subtilis [11]; MTCC 441, 48 h, read-out: DIZ): 8 mm; zone of inhibition at 250 µg/mL (Micrococcus luteus [18]; MTCC 1538, 48 h, read-out: DIZ): 8 mm; zone of inhibition at 1000 µg/mL (Staphylococcus aureus [23]): 12 mm; zone of inhibition at 750 µg/mL (Staphylococcus aureus [24]): 10 mm; zone of inhibition at 500 µg/mL (Staphylococcus aureus [25]): 9 mm; zone of inhibition at 250 µg/mL (Staphylococcus aureus [26]; MTCC 1430, 48 h, read-out: DIZ): 8 mm; zone of inhibition at 250 µg/mL (Pseudomonas aeruginosa [27]): 9 mm; zone of inhibition at 100 µg/mL (Pseudomonas aeruginosa [28]): 7 mm; zone of inhibition at 1250 µg/mL (Micrococcus luteus [29]): 17 mm; zone of inhibition at 1000 µg/mL (Micrococcus luteus [30]): 15 mm; zone of inhibition at 750 µg/mL (Micrococcus luteus [31]): 14 mm; zone of inhibition at 100 µg/mL (Pseudomonas fluorescens [32]): 7 mm; zone of inhibition at 1250 µg/mL (Escherichia coli [33]): 22 mm; zone of inhibition at 750 µg/mL (Escherichia coli [34]): 15 mm; zone of inhibition at 500 µg/mL (Escherichia coli [35]): 13 mm; zone of inhibition at 250 µg/mL (Escherichia coli [36]): 9 mm; zone of inhibition at 100 µg/mL (Escherichia coli [37]): 7 mm; zone of inhibition at 1000 µg/mL (Pseudomonas aeruginosa [38]): 18 mm; zone of inhibition at 500 µg/mL (Pseudomonas aeruginosa [39]): 13 mm
150 µg/mL (≈ 334 µM)	40 µg/mL (≈ 89.1 µM)	40 µg/mL (≈ 89.1 µM)	30 µg/mL (≈ 66.8 µM)	40 µg/mL (≈ 89.1 µM)	150 µg/mL (≈ 334 µM)	O=C1CSC(c2cccc3ccccc23)N1c1nnc2c3cc(Cl)ccc3nc-2s1 (stereo not drawn)	20 mm	18 mm	15 mm	11 mm	15 mm	15 mm	11 mm	18 mm	13 mm	12 mm	20 mm	17 mm	8 mm	15 mm	growth inhibition (GI) (Bacillus subtilis [11]): inactive; growth inhibition (GI) (Micrococcus luteus [18]): inactive; zone of inhibition at 1000 µg/mL (Staphylococcus aureus [23]): 10 mm; zone of inhibition at 750 µg/mL (Staphylococcus aureus [24]): 8 mm; zone of inhibition at 500 µg/mL (Staphylococcus aureus [25]): 6 mm; growth inhibition (GI) (Staphylococcus aureus [26]): inactive; zone of inhibition at 250 µg/mL (Pseudomonas aeruginosa [27]): 10 mm; zone of inhibition at 100 µg/mL (Pseudomonas aeruginosa [28]): 8 mm; zone of inhibition at 1250 µg/mL (Micrococcus luteus [29]): 20 mm; zone of inhibition at 1000 µg/mL (Micrococcus luteus [30]): 15 mm; zone of inhibition at 750 µg/mL (Micrococcus luteus [31]): 12 mm; zone of inhibition at 100 µg/mL (Pseudomonas fluorescens [32]): 8 mm; zone of inhibition at 1250 µg/mL (Escherichia coli [33]): 20 mm; zone of inhibition at 750 µg/mL (Escherichia coli [34]): 15 mm; zone of inhibition at 500 µg/mL (Escherichia coli [35]): 13 mm; zone of inhibition at 250 µg/mL (Escherichia coli [36]): 10 mm; zone of inhibition at 100 µg/mL (Escherichia coli [37]): 7 mm; zone of inhibition at 1000 µg/mL (Pseudomonas aeruginosa [38]): 15 mm; zone of inhibition at 500 µg/mL (Pseudomonas aeruginosa [39]): 12 mm
